Data from US20060252807A1, “Novel ortho-terphenyl inhibitors of p38 kinase and methods of treating inflammatory disorders” (Kalypsys, Inc., priority 2005, published 2006).

The compounds below were run against T1, active p38 alpha enzyme (Upstate Biotechnology) (Homo sapiens, UniProt Q16539) (assay: p38α biochemical assay (ATP turnover, luminescent detection, Cambrex PKlight)). Settings: p38α kinase; Table 1 Biological Activity.
T1 construct: purchased Upstate Biotechnology
Method in brief: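 Measures total ATP turnover by luminescence after human p38α phosphorylates full MapkapK2 protein. Final ATP is 1.4 uM, and incubation runs 2 hours at 30C. The buffer includes 100 mM MgCl2, 4 mM CaCl2 and 1 mg/ml BSA.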

T1 sequence (Q16539 whole entry): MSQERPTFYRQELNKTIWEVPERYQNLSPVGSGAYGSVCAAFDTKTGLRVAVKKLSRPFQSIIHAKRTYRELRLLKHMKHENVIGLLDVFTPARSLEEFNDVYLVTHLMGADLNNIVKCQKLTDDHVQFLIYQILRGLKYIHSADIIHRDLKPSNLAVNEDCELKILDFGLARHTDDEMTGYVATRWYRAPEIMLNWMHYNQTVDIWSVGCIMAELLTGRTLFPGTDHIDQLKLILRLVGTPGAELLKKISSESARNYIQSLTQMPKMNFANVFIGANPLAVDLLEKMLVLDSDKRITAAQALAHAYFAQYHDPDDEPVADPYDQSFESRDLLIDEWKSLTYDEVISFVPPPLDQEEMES

IC50	SMILES
> 1000 nM	COc1ccc(NC(=O)c2csc(-c3c(-c4ccc(F)cc4)n[nH]c3C3CCNCC3)n2)cc1OC [Example 2125]
> 1000 nM	O=C(NCCc1ccccc1Cl)c1csc(-c2c(-c3ccc(F)cc3)n[nH]c2C2CCNCC2)n1 [Example 2126]
> 1000 nM	O=C(NCCc1ccc(Cl)cc1)c1csc(-c2c(-c3ccc(F)cc3)n[nH]c2C2CCNCC2)n1 [Example 2127]
> 1000 nM	O=C(NCCc1cccc(Cl)c1)c1csc(-c2c(-c3ccc(F)cc3)n[nH]c2C2CCNCC2)n1 [Example 2128]
> 1000 nM	CC1(C)CC(NC(=O)c2csc(-c3c(-c4ccc(F)cc4)n[nH]c3C3CCNCC3)n2)CC(C)(C)N1 [Example 2129]
> 1000 nM	CCN(CC)CCCC(C)NC(=O)c1csc(-c2c(-c3ccc(F)cc3)n[nH]c2C2CCNCC2)n1 (centres unmarked) [Example 2130]
> 1000 nM	O=C(NCc1ccc(F)c(Cl)c1)c1csc(-c2c(-c3ccc(F)cc3)n[nH]c2C2CCNCC2)n1 [Example 2131]
> 1000 nM	N#CCCN(Cc1ccccc1)C(=O)c1csc(-c2c(-c3ccc(F)cc3)n[nH]c2C2CCNCC2)n1 [Example 2132]
> 1000 nM	CC(C)(C)OC(=O)NCCNC(=O)c1csc(-c2c(-c3ccc(F)cc3)n[nH]c2C2CCNCC2)n1 [Example 2133]
> 1000 nM	O=C(NCCc1c[nH]c2ccccc12)c1csc(-c2c(-c3ccc(F)cc3)n[nH]c2C2CCNCC2)n1 [Example 2134]
> 1000 nM	CC(C)(C)c1ccc(CNC(=O)c2csc(-c3c(-c4ccc(F)cc4)n[nH]c3C3CCNCC3)n2)cc1 [Example 2135]
> 1000 nM	CN(CCCNC(=O)c1csc(-c2c(-c3ccc(F)cc3)n[nH]c2C2CCNCC2)n1)c1ccccc1 [Example 2136]
> 1000 nM	O=C(NCC1(O)CCCCC1)c1csc(-c2c(-c3ccc(F)cc3)n[nH]c2C2CCNCC2)n1 [Example 2137]
> 1000 nM	COc1cc(CNC(=O)c2csc(-c3c(-c4ccc(F)cc4)n[nH]c3C3CCNCC3)n2)cc(OC)c1 [Example 2138]
> 1000 nM	COc1ccc(CNC(=O)c2csc(-c3c(-c4ccc(F)cc4)n[nH]c3C3CCNCC3)n2)cc1OC [Example 2139]
> 1000 nM	O=C(CNC(=O)c1csc(-c2c(-c3ccc(F)cc3)n[nH]c2C2CCNCC2)n1)c1ccccc1 [Example 2140]
> 1000 nM	CCOC(=O)N1CCC(NC(=O)c2csc(-c3c(-c4ccc(F)cc4)n[nH]c3C3CCNCC3)n2)CC1 [Example 2141]
> 1000 nM	CC(C)(C)OC(=O)NCCCNC(=O)c1csc(-c2c(-c3ccc(F)cc3)n[nH]c2C2CCNCC2)n1 [Example 2142]
> 1000 nM	O=C(NCc1ccc(C(F)(F)F)cc1)c1csc(-c2c(-c3ccc(F)cc3)n[nH]c2C2CCNCC2)n1 [Example 2143]
> 1000 nM	O=C(NCc1cccc(C(F)(F)F)c1)c1csc(-c2c(-c3ccc(F)cc3)n[nH]c2C2CCNCC2)n1 [Example 2144]
> 1000 nM	O=C(NCc1ccc(Cl)c(Cl)c1)c1csc(-c2c(-c3ccc(F)cc3)n[nH]c2C2CCNCC2)n1 [Example 2145]
> 1000 nM	O=C(NCc1ccc(Cl)cc1Cl)c1csc(-c2c(-c3ccc(F)cc3)n[nH]c2C2CCNCC2)n1 [Example 2146]
> 1000 nM	O=C(NC1CCN(Cc2ccccc2)C1)c1csc(-c2c(-c3ccc(F)cc3)n[nH]c2C2CCNC2)n1 (centres unmarked) [Example 2147]
> 1000 nM	COc1ccc(OC)c(CCNC(=O)c2csc(-c3c(-c4ccc(F)cc4)n[nH]c3C3CCNCC3)n2)c1 [Example 2148]
> 1000 nM	CN(C)c1ccc(CNC(=O)c2csc(-c3c(-c4ccc(F)cc4)n[nH]c3C3CCNCC3)n2)cc1 [Example 2149]

IC50	SMILES
≤ 1000 nM	COc1ccc(CNC(=O)c2csc(-c3c(-c4ccc(F)cc4)n[nH]c3C3CCNCC3)n2)cc1O [Example 2150]
> 1000 nM	O=C(NC1CCN(Cc2ccccc2)CC1)c1csc(-c2c(-c3ccc(F)cc3)n[nH]c2C2CCNCC2)n1 [Example 2151]
> 1000 nM	O=C(NCc1ccccc1OC(F)(F)F)c1csc(-c2c(-c3ccc(F)cc3)n[nH]c2C2CCNCC2)n1 [Example 2152]
> 1000 nM	NS(=O)(=O)c1ccc(CCNC(=O)c2csc(-c3c(-c4ccc(F)cc4)n[nH]c3C3CCNCC3)n2)cc1 [Example 2153]
> 1000 nM	COc1ccc(C(=O)CNC(=O)c2csc(-c3c(-c4ccc(F)cc4)n[nH]c3C3CCNCC3)n2)cc1 [Example 2154]
> 1000 nM	O=C(NCCc1ccc2c(c1)OCO2)c1csc(-c2c(-c3ccc(F)cc3)n[nH]c2C2CCNCC2)n1 [Example 2155]
> 1000 nM	O=C(NCCC(c1ccccc1)c1ccccc1)c1csc(-c2c(-c3ccc(F)cc3)n[nH]c2C2CCNCC2)n1 [Example 2156]
> 1000 nM	Cc1ccc(S(=O)(=O)NCCNC(=O)c2csc(-c3c(-c4ccc(F)cc4)n[nH]c3C3CCNCC3)n2)cc1 [Example 2157]
≤ 1000 nM	Cc1nc(-c2ccc(F)cc2)c(-c2nc(C(=O)NC(C)C)cs2)[nH]1 [Example 2158, 2-|5-(4-Fluoro-phenyl)-2-methyl-3H-imidazol-4-yl|-thiazole-4-carboxylic acid isopropylamide]
> 1000 nM	Cc1nc(-c2ccc(F)cc2)c(-c2nc(C(N)=O)cs2)o1 [Example 2159, 2-|4-(4-Fluoro-phenyl)-2-methyl-oxazol-5-yl|-thiazole-4-carboxylic acid amide]
≤ 1000 nM	CC(C)NC(=O)c1coc(-c2c(-c3ccc(F)cc3)noc2C2CCNCC2)n1 [Example 2160, 2-|3-(4-Fluoro-phenyl)-5-piperidin-4-yl-isoxazol-4-yl|-oxazole-4-carboxylic acid isopropylamide]
> 1000 nM	COCCOCn1nc(-c2ccc(F)cc2)c(-c2nc(C=O)cs2)c1C [Example 2161, 2-|3-(4-Fluoro-phenyl)-1-(2-methoxy-ethoxymethyl)-5-methyl-1H-pyrazol-4-yl|-thiazole-4-carbaldehyde]
> 1000 nM	CC(C)NC(=O)c1csc(-c2c(-c3ccc(Cl)cc3)ncn2C2CCNCC2)n1 [Example 2162, 2-|5-(4-Chloro-phenyl)-3-piperidin-4-yl-3H-imidazol-4-yl|-thiazole-4-carboxylic acid isopropylamide]
≤ 1000 nM	CC(=O)N1CCC(n2cnc(-c3ccc(Cl)cc3)c2-c2nc(C(=O)NC(C)C)cs2)CC1 [Example 2163]
≤ 1000 nM	CC(C)NC(=O)c1csc(-c2c(-c3ccc(F)cc3)n[nH]c2C2CCN(C(=O)[C@H](C)O)CC2)n1 [Example 2165, 2-{3-(4-Fluoro-phenyl)-5-|1-(2-hydroxy-propionyl)-piperidin-4-yl|-1H-pyrazol-4-yl}-thiazole-4-carboxylic acid isopropylamide]
≤ 1000 nM	CC(C)NC(=O)c1csc(-c2c(-c3ccc(F)cc3)n[nH]c2C2CCN(C(=O)C(C)(C)O)CC2)n1 [Example 2166, 2-{3-(4-Fluoro-phenyl)-5-|1-(2-hydroxy-2-methyl-propionyl)-piperidin-4-yl|-1H-pyrazol-4-yl}-thiazole-4-carboxylic acid isopropylamide]
≤ 1000 nM	CC(=O)N1CCC(c2[nH]nc(-c3ccc(F)cc3)c2-c2nc(C(=O)NC(C)C)cs2)CC1 [Example 2167, 2-|5-(1-Acetyl-piperidin-4-yl)-3-(4-fluoro-phenyl)-1H-pyrazol-4-yl|-thiazole-4-carboxylic acid isopropylamide]
≤ 1000 nM	COCCOCC(=O)N1CCC(c2[nH]nc(-c3ccc(F)cc3)c2-c2nc(C(=O)NC(C)C)cs2)CC1 [Example 2168, 2-(3-(4-Fluoro-phenyl)-5-{1-|2-(2-methoxy-ethoxy)-acetyl|-piperidin-4-yl}-1H-pyrazol-4-yl)-thiazole-4-carboxylic acid isopropylamide]
≤ 1000 nM	CC(C)NC(=O)c1csc(-c2c(-c3ccc(F)cc3)n[nH]c2C2CCN(C(=O)c3ccccn3)CC2)n1 [Example 2169, 2-{3-(4-Fluoro-phenyl)-5-|1-(pyridine-2-carbonyl)-piperidin-4-yl|-1H-pyrazol-4-yl}-thiazole-4-carboxylic acid isopropylamide]
> 1000 nM	CC(C)NC(=O)c1csc(-c2c(-c3ccc(F)cc3)n[nH]c2C2CCN(C(=O)c3ccccc3)CC2)n1 [Example 2170, 2-|5-(1-Benzoyl-piperidin-4-yl)-3-(4-fluoro-phenyl)-1H-pyrazol-4-yl|-thiazole-4-carboxylic acid isopropylamide]
> 1000 nM	CC(C)NC(=O)c1csc(-c2c(-c3ccc(F)cc3)n[nH]c2C2CCN(C(=O)c3ccc(C#N)cc3)CC2)n1 [Example 2171, 2-|5-|1-(4-Cyano-benzoyl)-piperidin-4-yl|-3-(4-fluoro-phenyl)-1H-pyrazol-4-yl|-thiazole-4-carboxylic acid isopropylamide]
≤ 1000 nM	COC(=O)N1CCC(c2[nH]nc(-c3ccc(F)cc3)c2-c2nc(C(=O)NC(C)C)cs2)CC1 [Example 2172, 4-|5-(4-Fluoro-phenyl)-4-(4-isopropyl-carbamoyl-thiazol-2-yl)-2H-pyrazol-3-yl|-piperidine-1-carboxylic acid methyl ester]
≤ 1000 nM	COCC(=O)N1CCC(c2[nH]nc(-c3ccc(F)cc3)c2-c2nc(C(=O)NC(C)C)cs2)CC1 [Example 2173, 2-{3-(4-Fluoro-phenyl)-5-|1-(2-methoxy-acetyl)-piperidin-4-yl|-1H-pyrazol-4-yl}-thiazole-4-carboxylic acid isopropylamide]
≤ 1000 nM	CC(C)NC(=O)c1csc(-c2c(-c3ccc(F)cc3)n[nH]c2C2CCN(C(=O)C(F)(F)F)CC2)n1 [Example 2174, 2-{3-(4-Fluoro-phenyl)-5-|1-(2,2,2-trifluoro-acetyl)-piperidin-4-yl|-1H-pyrazol-4-yl}-thiazole-4-carboxylic acid isopropylamide]
≤ 1000 nM	CC(C)NC(=O)c1csc(-c2c(-c3ccc(F)cc3)n[nH]c2C2CCN(C(=O)c3ncc[nH]3)CC2)n1 [Example 2175, 2-{3-(4-Fluoro-phenyl)-5-|1-(1H-imidazole-2-carbonyl)-piperidin-4-yl|-1H-pyrazol-4-yl}-thiazole-4-carboxylic acid isopropylamide]
